Data from patent US9481654B2, “Compositions and methods for inhibition of the JAK pathway” (Rigel Pharmaceuticals, Inc., priority 2006, dated 2016).

Legend:
Type in all cases: cell-based
[1] = tested on: primary human T-cells (IL-2 induced proliferation, JAK-1/JAK-3, Stat-5); experiment: Primary Human T-Cell Proliferation Assay Stimulated with IL-2 (CellTiter-Glo); details: Table III Example 4
In short: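 Pre-activated peripheral-blood T-cells (TCR/CD28 stimulated, IL-2-maintained) were IL-2-depleted, then plated in Yssel's medium with 80 U/mL IL-2 in the cell suspension and compound in duplicate. Proliferation ran 72 h at 37 °C; viable cells quantified by CellTiter-Glo ATP luminescence, with IL-2-omitted wells as unstimulated control.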

[2] = tested on: IFNγ induced ICAM-1 (CD54) up-regulation in U937 human monocytic cells (JAK/Stat pathway); experiment: U937 IFNγ ICAM1 FACS Assay; details: Table III Example 6; 10 ng/mL IFNγ, 18-24 hours
In short: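 U937 cells (100,000 per well) were pre-incubated 30 min at 37 °C with serially 3-fold diluted compound, then stimulated with IFNγ for 18–24 h. Surface ICAM-1 was measured by flow cytometry as the geometric mean of ICAM-APC on gated live cells. EC50 values were calculated from dose curves, with % live cells also recorded.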

[3] = tested on: IL-4 stimulated CD23 upregulation in human Ramos B cells (JAK-1/JAK-3, Stat-6); experiment: Assay for Ramos B-Cell Line Stimulated with IL-4 (CD23 upregulation, FACS); details: Table III Example 3
In short: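 Log-phase Ramos B cells (5×10^4 per point, RPMI with 5% serum) pre-incubated with compound or DMSO 1 h at 37° C, then stimulated with IL-4 at 50 units/mL final for 20-24 h. CD23 upregulation measured by staining and flow cytometry.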

SMILES	IC50 [1] [nM]	IC50 [2] [nM]	IC50 [3] [nM]
Cc1ccc(Nc2ncc(C)c(Nc3ccc4c(c3)CCN(S(=O)(=O)C3CC3)C4)n2)cc1S(N)(=O)=O [II-3, N2-(3-aminosulfonyl-4-methyl)phenyl-N4-[(N-cyclopropylsulfonyl)-1,2,3,4-tetrahydroisoquinolin-6-yl]-5-methyl-2,4-pyrimidinediamine]	47.5	87.9	19.4
Cc1cnc(Nc2cccc(S(N)(=O)=O)c2)nc1Nc1ccc2c(c1)CN(S(=O)(=O)C1CC1)C2 [II-8, N2-(3-Aminosulfonyl-phenyl)-N4-[(2-cyclopropylsulfonyl)-isoindolin-5-yl]-5-methyl-2,4-pyrimidinediamine]	147	775	97.9
